Key:
Assay in all cases: relative viability (nuclei count vs DMSO), 5 days (fraction); higher = more cells survive
[1] = compound: C(C(=O)C(=O)O)Br [Bromopyruvate] + CS(=O)(=O)CCNCc1ccc(-c2ccc3ncnc(Nc4ccc(OCc5cccc(F)c5)c(Cl)c4)c3c2)o1 [Lapatinib] (partner 2 µM)
In short: (§1)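 Cells from lung cancer lines were seeded into 1536-well plates and, one day later, dosed by pin tool. Treatments were either a single drug or a fixed dose of an anchor drug with five library-drug doses (not always all listed) in √10 steps. After 5 days, nuclei were stained in a one-step fixation (final 0.05% Triton X-100, 1% formaldehyde, 1 ug/ml Hoechst) and counted on 4× images, and relative viability is the treated-to-vehicle nuclei ratio, as the median of duplicate plates.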

[2] = compound: CC(O)(CS(=O)(=O)c1ccc(F)cc1)C(=O)Nc1ccc(C#N)c(C(F)(F)F)c1 [Bicalutamide] + Cc1cc(Nc2cc(N3CCN(C)CC3)nc(Sc3ccc(NC(=O)C4CC4)cc3)n2)n[nH]1 [Tozasertib] (partner 0.1 µM)
In short: as §1

[3] = compound: CC(O)(CS(=O)(=O)c1ccc(F)cc1)C(=O)Nc1ccc(C#N)c(C(F)(F)F)c1 [Bicalutamide] + Cc1nc(NC(=O)N2CCC[C@H]2C(N)=O)sc1-c1ccnc(C(C)(C)C(F)(F)F)c1 [Alpelisib] (partner 2 µM)
In short: as §1

[4] = compound: CC(O)(CS(=O)(=O)c1ccc(F)cc1)C(=O)Nc1ccc(C#N)c(C(F)(F)F)c1 [Bicalutamide] + O=C(c1cc(Cc2n[nH]c(=O)c3ccccc23)ccc1F)N1CCN(C(=O)C2CC2)CC1 [Olaparib] (partner 8 µM)
In short: as §1

Cell Line	relative viability ([1]; first compound 1 µM)	relative viability ([1]; first compound 3.162 µM)	relative viability ([1]; first compound 10 µM)	relative viability ([1]; first compound 31.62 µM)	relative viability ([1]; first compound 100 µM)	relative viability ([2]; first compound 0.08 µM)	relative viability ([2]; first compound 0.253 µM)	relative viability ([2]; first compound 0.8 µM)	relative viability ([2]; first compound 2.53 µM)	relative viability ([3]; first compound 0.08 µM)	relative viability ([3]; first compound 0.253 µM)	relative viability ([3]; first compound 0.8 µM)	relative viability ([3]; first compound 2.53 µM)	relative viability ([4]; first compound 0.08 µM)	relative viability ([4]; first compound 0.253 µM)	relative viability ([4]; first compound 0.8 µM)	relative viability ([4]; first compound 2.53 µM)
NCI-H460	0.967	0.881	1.8	1.01	0.967	0.521	0.39	0.434	0.52	0.52	0.429	0.685	0.506	0.439	0.391	0.436	0.383
NCI-H520	0.846	0.966	0.98	0.766	0.739	0.433	0.414	0.539	0.458	1.08	0.945	1.1	0.808	0.342	0.31	0.335	0.337
NCI-H596	1.11	1.08	1.15	1.01	1.16	0.897	0.82	0.998	0.989	0.521	0.493	0.588	0.568	0.604	0.767	0.799	0.844
NCI-H647	1.02	0.972	1.19	1.15	0.916	0.3	0.264	0.293	0.191	1.32	1.33	1.47	0.858	0.571	0.384	0.591	0.381
NCI-H650	1.12	1.16	0.966	0.885	0.769	0.792	0.747	0.885	0.653	1.34	1.04	1.35	0.814	0.373	0.395	0.401	0.396
NCI-H661	0.52	0.475	0.623	0.526	0.559	0.367	0.355	0.362	0.359	0.594	0.591	0.833	0.829	0.815	0.768	0.74	0.779
NCI-H727	1.13	0.928	0.862	0.781	0.86	0.615	0.619	0.591	0.603	0.63	0.546	0.471	0.483	0.895	0.678	0.614	0.732
NCI-H838	1.05	0.962	1.01	1.01	0.936	0.274	0.279	0.289	0.23	0.984	0.909	0.984	0.945	0.777	0.778	0.733	0.522
NCI-H1355	0.978	0.986	1.06	0.995	0.965	0.613	0.499	0.658	0.462	0.816	0.793	0.924	0.853	0.711	0.696	0.848	0.668
NCI-H1395	1.07	0.928	1.07	0.919	0.976	0.829	0.736	0.827	0.696	0.94	1.04	1.34	0.928	0.449	0.483	0.466	0.429
NCI-H1437	0.845	0.768	1.1	0.801	0.804	0.399	0.423	0.448	0.403	1.02	0.988	1.24	0.954	0.613	0.614	0.63	0.613
NCI-H1651	0.858	0.909	0.905	0.764	0.829	0.761	0.658	0.66	0.632	0.956	0.947	1.17	0.944	0.203	0.167	0.192	0.181
NCI-H1666	0.823	0.666	0.677	0.701	0.557	0.6	0.562	0.625	0.597	1.01	0.889	1.13	0.942	0.733	0.814	0.728	0.744
NCI-H1734	1.08	0.944	1.26	1.08	1.12	0.249	0.244	0.268	0.279	0.676	0.59	0.884	0.683	0.623	0.546	0.685	0.606
NCI-H1755	0.988	1.02	1.02	1.07	1.19	0.458	0.625	0.576	0.599	0.914	0.903	0.992	0.853	0.87	0.817	0.901	0.857
NCI-H1793	0.593	1.11	0.674	0.842	0.59	0.36	0.257	0.313	0.309	0.763	0.636	0.827	0.687	0.799		1.38	0.744
NCI-H1915	0.95	0.98	0.976	0.98	0.991	0.434	0.447	0.491	0.381	1.07	1.12	1.14	1.01	0.25	0.232	0.29	0.254
NCI-H1944	0.826	0.903	0.932	0.7	0.869	0.246	0.232	0.256	0.257	0.852	0.737	0.869	0.851	0.424	0.388	0.46	0.375

Cell Line	relative viability ([1]; first compound 1 µM)	relative viability ([1]; first compound 3.162 µM)	relative viability ([1]; first compound 10 µM)	relative viability ([1]; first compound 31.62 µM)	relative viability ([1]; first compound 100 µM)	relative viability ([2]; first compound 0.08 µM)	relative viability ([2]; first compound 0.253 µM)	relative viability ([2]; first compound 0.8 µM)	relative viability ([2]; first compound 2.53 µM)	relative viability ([3]; first compound 0.08 µM)	relative viability ([3]; first compound 0.253 µM)	relative viability ([3]; first compound 0.8 µM)	relative viability ([3]; first compound 2.53 µM)	relative viability ([4]; first compound 0.08 µM)	relative viability ([4]; first compound 0.253 µM)	relative viability ([4]; first compound 0.8 µM)	relative viability ([4]; first compound 2.53 µM)
NCI-H1975	0.876	1.08	1.01	0.838	0.833	0.785	0.711	0.745	0.514	0.642	0.615	0.795	0.526	0.81	0.772	1	0.59
NCI-H1993	0.698	0.763	0.705	0.847	0.769	0.567	0.581	0.727	0.629		0.693	0.708	0.717	1.05	0.785	1.17	1.01
NCI-H2009	0.903	0.783	0.877	0.874	0.909	0.777	0.664	0.723	0.649	1.25	1.14	1.13	1.18	0.675	0.702	0.715	0.667
NCI-H2023	0.803	0.922	0.743	0.877	0.793	0.448	0.376	0.306	0.249	0.593	0.59	0.555	0.608	0.534	0.493	0.495	0.394
NCI-H2085	0.761	0.784	0.771	0.815	0.707	0.913	0.81	0.805	0.804	0.895	1.04	0.958	0.879	0.758	0.865	0.773	0.781
NCI-H2087	1.06	1.02	1.09	0.91	1.05	0.234	0.226	0.262	0.219	1.22	0.843	1.16	1.13	0.527	0.51	0.75	0.572
NCI-H2126	0.752	0.78	0.764	0.787	0.751	0.939	0.811	0.944	0.75	0.742	0.707	0.76	0.74	0.989	0.913	1.01	0.859
NCI-H2170	0.25	0.284	0.277	0.246	0.293	0.728	0.696	0.716	0.739	0.834	0.767	0.853	0.842	0.612	0.572	0.536	0.645
NCI-H2228	1.45	0.99	1.2	1.12	1.1	0.208	0.349	0.202	0.253	0.779	0.805	0.908	0.58	0.748	0.536	1.16	0.524
NCI-H2347	0.897	1.02	1.18	0.782	1.15	0.625	0.511	0.597	0.504	1.09	1.09	1.12	0.971	0.518	0.555	0.62	0.54
NCI-H2405	1.13	1.12	1.13	0.965	1.14	0.876	0.691	0.715	0.656	0.789	0.775	0.827	0.775	0.947	0.83	0.919	0.842
NCI-H3122	0.982	1.05	0.961	1.01	1.01	0.422	0.408	0.445	0.44	0.707	0.92	0.821	0.767	0.536	0.657	0.712	0.617
PC-3 [JPC-3]	0.474	0.44	0.441	0.468	0.467	0.926	0.903	0.952	0.893	1.08	1.01	1.09	1.07	1.22	1.09	1.16	1.24
PC-14	0.317	0.317	0.361	0.276	0.325	0.643	0.616	0.744	0.588	0.916	0.952	0.969	0.869	0.346	0.3	0.274	0.271
RERF-LC-KJ	0.874	0.892	0.984	0.868	0.829	0.48	0.521	0.494	0.338	0.756	0.81	0.948	0.777	0.979	1.04	0.962	0.768
SK-LU-1	1.06	0.806	0.81	0.823	0.88	0.341	0.291	0.295	0.319	1.12	0.962	1.41	0.848	0.502	0.482	0.633	0.486
SK-MES-1	0.417	0.466	0.488	0.432	0.465	1.08	0.853	0.867	0.66	0.903	0.718	1.02	0.858	0.825	0.711	0.773	0.561
SW 1573	1.11	1.03	1.09	1.05	0.904	0.205		0.231	0.135	0.678	0.639	0.831	0.689	0.542	0.525	0.428	0.472

From the supplement of paper PMC10307832
